Square brackets hold non-standard residues; d marks the D form. Peptide text beside a SMILES is read from it. NMeT = CN[C@H](C(=O)O)[C@@H](C)O; NMeL = CN[C@@H](CC(C)C)C(=O)O; Sar = CNCC(=O)O

For 15 molecules, Papp and Papp A→B results are on record in ChEMBL document CHEMBL3425496, “Exploring experimental and computational markers of cyclic peptides: Charting islands of permeability” (Eur J Med Chem, 2015).

Series [1] in a line: Apparent permeability of the compound at 50 uM after 5 hrs by PAMPA method. It is filed as physicochemical. In general terms: PAMPA measures passive passage across an artificial lipid membrane.
A short description of series [2]: Apparent permeability from apical to basolateral side in human Caco2 cells by LC-MS analysis. It is filed as ADME, cell-based. Conditions: Caco-2. A general note: Caco-2 monolayers are a common model of the intestinal barrier.

The Papp is the rate of passage across a membrane or cell layer, normalised by area and donor concentration. What is called Papp A→B is how fast a substance crosses the layer from the apical side. Take `CC(C)C[C@@H]1C(=O)N(C)[C@@H](CC(C)C)C(=O)N[C@@H](Cc2ccc(O)cc2)C(=O)N(C)[C@H](C)C(=O)N(C)CC(=O)N[C@@H](Cc2ccccc2)C(=O)N1C`: in series [1], the Papp at 5 h, 50 µM was 0.93 ×10⁻⁶ cm/s. Besides, in series [2], the Papp A→B came out at 4.77 ×10⁻⁶ cm/s.
On the same counts, the results for `CC(C)C[C@@H]1NC(=O)[C@H](Cc2ccccc2)N(C)C(=O)CN(C)C(=O)[C@H](C)NC(=O)[C@H](Cc2ccc(O)cc2)N(C)C(=O)[C@H]2CCCN2C1=O` are 0.35 ×10⁻⁶ cm/s and 1.08 ×10⁻⁶ cm/s.
The like results for `CC(C)C[C@H]1NC(=O)[C@@H](Cc2ccccc2)NC(=O)CN(C)C(=O)[C@H](C)N(C)C(=O)[C@H](Cc2ccc(O)cc2)NC(=O)[C@@H]2CCCN2C1=O` were, in that order, 0.03 ×10⁻⁶ cm/s and less than 0.14 ×10⁻⁶ cm/s.
On the same counts, the results for `CC(C)C[C@@H]1NC(=O)[C@H](Cc2ccccc2)NC(=O)[C@H]([C@@H](C)O)N(C)C(=O)CN(C)C(=O)[C@H]([C@@H](C)O)NC(=O)[C@H](Cc2ccc(O)cc2)NC1=O` (cyclo(FLYT[Sar][NMeT])) are 0.01 ×10⁻⁶ cm/s and 0.1 ×10⁻⁶ cm/s.
Turning to `CC(C)C[C@@H]1NC(=O)[C@H](Cc2ccccc2)NC(=O)CN(C)C(=O)[C@H](CC(C)C)N(C)C(=O)[C@H](Cc2ccc(O)cc2)NC(=O)[C@@H]2CCCN2C1=O` (cyclo(FLPY[NMeL][Sar])), the Papp at 5 h, 50 µM in series [1] was 0.1 ×10⁻⁶ cm/s. Besides, the apical-to-basolateral permeability (Papp A→B) in series [2] is 0.1 ×10⁻⁶ cm/s.
For `CC(C)C[C@@H]1NC(=O)[C@@H](Cc2ccccc2)NC(=O)CNC(=O)[C@@H](C)NC(=O)[C@H](Cc2ccc(O)cc2)NC(=O)[C@@H]2CCCN2C1=O`, the Papp at 5 h, 50 µM in series [1] turned out to be 0.01 ×10⁻⁶ cm/s. The apparent permeability from apical to basolateral (Papp A→B) in series [2] was determined as 0.09 ×10⁻⁶ cm/s.
The like results for `CC(C)C[C@@H]1NC(=O)[C@@H](CC(C)C)NC(=O)[C@@H](CC(C)C)NC(=O)[C@H](Cc2c[nH]c3ccccc23)NC(=O)[C@@H]2CCCN2C(=O)[C@@H](CC(C)C)NC1=O` were, in that order, 2.53 ×10⁻⁶ cm/s and 17.5 ×10⁻⁶ cm/s.
As to `CC[C@H](C)[C@@H]1NC(=O)[C@H](Cc2ccc(O)cc2)NC(=O)[C@H](Cc2ccccc2)NC(=O)CNC(=O)[C@H](C(C)C)NC(=O)CNC1=O` (cyclo(FYIGVG)), the apparent permeability (Papp) at 5 h, 50 µM in series [1] worked out at 0.01 ×10⁻⁶ cm/s. In series [2], the Papp A→B was 0.06 ×10⁻⁶ cm/s.
On the same counts, the results for `C[C@@H](O)[C@@H]1NC(=O)[C@@H](CCCCN)NC(=O)[C@@H](Cc2c[nH]c3ccccc23)NC(=O)[C@H](Cc2ccccc2)NC(=O)[C@@H]2CCCN2C(=O)[C@@H](Cc2ccccc2)NC1=O` are 0.09 ×10⁻⁶ cm/s and 0.2 ×10⁻⁶ cm/s.
The like results for `CC(C)C[C@@H]1NC(=O)CNC(=O)[C@@H]2CCCN2C(=O)[C@H](Cc2ccc(O)cc2)NC(=O)[C@H](Cc2ccccc2)NC(=O)[C@@H]2CCCN2C1=O` (cyclo(FYPGLP)) were, in that order, 0.01 ×10⁻⁶ cm/s and 0.11 ×10⁻⁶ cm/s.
The like results for `CC(C)C[C@@H]1NC(=O)CNC(=O)[C@H](Cc2ccccc2)NC(=O)[C@H](CC(N)=O)NC(=O)[C@H](Cc2ccc(O)cc2)NC(=O)[C@H](C)NC1=O` (cyclo(AYNFGL)) were, in that order, 0.01 ×10⁻⁶ cm/s and 0.02 ×10⁻⁶ cm/s.
As for `CC(C)C[C@@H]1NC(=O)[C@H](Cc2ccccc2)NC(=O)[C@H]([C@@H](C)O)NC(=O)CNC(=O)[C@H](C(C)C)NC(=O)[C@H](Cc2ccc(O)cc2)NC1=O` (cyclo(FLYVGT)), the Papp at 5 h, 50 µM in series [1] was found to be 0.04 ×10⁻⁶ cm/s. Moreover, the Papp A→B in series [2] amounted to 0.11 ×10⁻⁶ cm/s.
The like results for `CC(C)C[C@@H]1C(=O)N(C)[C@@H](CC(C)C)C(=O)N(C)[C@@H](CC(C)C)C(=O)N2CCC[C@@H]2C(=O)N[C@@H](Cc2ccc(O)cc2)C(=O)N(C)[C@@H](CC(C)C)C(=O)N1C` were, in that order, 1.52 ×10⁻⁶ cm/s and 15.8 ×10⁻⁶ cm/s.
On to `CC(C)C[C@@H]1NC(=O)[C@@H](CC(C)C)N(C)C(=O)[C@H](CC(C)C)NC(=O)[C@H](Cc2ccc(O)cc2)N(C)C(=O)[C@H]2CCCN2C(=O)[C@H](CC(C)C)NC1=O`, for which, in series [1], the apparent permeability coefficient (Papp) at 5 h, 50 µM turned out to be 1.51 ×10⁻⁶ cm/s. The Papp A→B in series [2] stood at 7.75 ×10⁻⁶ cm/s.
On the same counts, the results for `CC(C)C[C@H]1C(=O)N2CCC[C@@H]2C(=O)N(C)[C@@H](Cc2ccc(O)cc2)C(=O)N[C@@H](C)C(=O)NCC(=O)N(C)[C@@H](Cc2ccccc2)C(=O)N1C` are 0.16 ×10⁻⁶ cm/s and 0.1 ×10⁻⁶ cm/s.
